Experimental data taken from PMC3629081, “Tetrahydropyrazolo[1,5-a]Pyrimidine-3-Carboxamide and N-Benzyl-6′,7′-Dihydrospiro[Piperidine-4,4′-Thieno[3,2-c]Pyran] Analogues with Bactericidal Efficacy against Mycobacterium tuberculosis Targeting MmpL3” (PLoS ONE, 2013).
In brackets after ≈: the same amount, converted by molar mass. Several values for one entry are separate records, joined by “and”; a condition that tells them apart may be missing. Identical values can stand only once. Like-named read-outs stand apart in the source and are kept apart here. Marks after values point to notes of the source that are not given here.

Key:
[1] = system: M. tuberculosis H37Rv; assay: MIC determination against M. tuberculosis H37Rv (resazurin); type: cell-based, Mycobacterium tuberculosis
[2] = system: clinical M. tuberculosis isolates; assay: MIC against clinical strains (BACTEC MGIT 960); type: cell-based, Mycobacterium tuberculosis; conditions: for MIC90: Mycobacterium tuberculosis, read-out: M. tuberculosis MIC90 (108 strains)
[3] = system: GFP expressing M. tuberculosis H37Rv in Raw264.7 macrophages; assay: microbe, parasite or virus in culture; type: cell-based, Mycobacterium tuberculosis; conditions: read-out: Intracell. H37Rv MIC80
[4] = system: panel of Gram-positive and Gram-negative organisms; assay: General antimicrobial activity assay (broth microdilution); type: cell-based; conditions: read-out: Antibacterial panel IC50
Description: Whole-cell antimicrobial activity was determined by broth microdilution using the Clinical and Laboratory Standards Institute (CLSI) recommended procedure, Document M7-A7, “Methods for Dilution Susceptibility Tests for Bacteria that Grow Aerobically”. Some compounds have been evaluated against a panel of Gram-positive and Gram-negative organisms, including Enterococcus faecium, Enterococcus faecalis, Haemophilus influenzae, Moraxella catarrhalis, Streptococcus pneumoniae, Escherichia coli and Streptococcus pyogenes. The MIC was determined as the lowest concentration of compound producing a >80 % reduction in fluorescence observed.

[5] = system: HepG2 cells; type: cell-based, human; conditions: for HepG2 Tox50: 48 h incubation
Description: Cytotoxicity assay was performed measuring the viability of immortalized human cell line culture (HepG2) after 48 h of incubation with a full curve concentration of the test substances in culture medium. For read out of viability of cells we used Resazurine (BDH®). Resazurin is used as an oxidation-reduction indicator that yields a colorimetric change and a fluorescent signal in response to metabolic activity. As cell grow, metabolic activity results in a chemical reduction of Resazurin indicated by a change from non-fluorescent blue to the reduced fluorescent pink form. The degree of Resazurin fluorescence is therefore, an indicator of the number of viable cells in the culture system. The cytotoxicity results were expressed as Tox50 values (IC50). This was done by calculating the concentration of test compounds that would result in a decrease in Resazurin reduction equivalent to 50% of the concurrent control values. The protocol we followed is described below briefly.
Cell line HepG2 (HB-8065) were cultured with fresh medium (Essential Minimum Eagle Medium, EMEM, supplemented with 5% fetal calf serum and 2 mM L-glutamine) the day before subculturing the plates. On the day of the assay, cells (10,000 cells/well) were seeded in a black 96-well collagen coated microplate with clear bottom, (Becton Dickinson®) except in column 11, that was dispensed only 100 μL of culture medium.
Stock solution from each test substances was prepared in 100% DMSO. Ten serial 1∶2 dilutions were prepared of each test compound and, finally, a 1∶200 dilution was made, in medium, to achieve a final concentration of 0.5% of DMSO. Resazurin tablets (Merck®) were dissolved in phosphate buffer saline at a concentration of 0.0042%.
After 24 h of incubation of the cells (37°C, 5% CO2, 95% relative humidity), a volume of 150 μL of culture medium containing the appropriate test concentrations of the compounds dilutions were added to cells in two replicates. In column 12, only 150 μL of 0.5% DMSO was added (blank control). Then, cells were exposed to test compounds for 48 h. After that, medium was removed and Resazurin solution was added to each well and incubated for further 1.5 h. Fluorescence was measured at an excitation wavelength of 515 nm and an emission wavelength of 590 nm in a Microplate reader 1420 Multilabel HTS counter, Victor 2, (Wallac®) The fluorescence value of each well is corrected by subtracting the background value (average of column 11) from the absolute value. The percentages of inhibition are calculated relatively to the DMSO control wells (average of column 12). For each compound, the average value of the duplicate samples is calculated. Data were processed using an Excel spreadsheet and GraphPad Software analysis. Tox50 values were calculated from the Sigmoidal dose-response (variable slope) curves by nonlinear regression analysis.

[6] = type: in vitro ADME, mouse
Description: (§1) Pooled mouse, rat, dog and human liver microsomes were purchased from Xenotech. Microsomes (final protein concentration 0.5 mg/ml, MgCl2 (final concentration 5 mM) and test compound (final substrate concentration 0.5 µM; final DMSO concentration 0.5 %) in 0.1 M phosphate buffer pH 7.4 were pre-incubated at 37°C prior to the addition of NADPH (final concentration 1 mM) to initiate the reaction. The final incubation volume was 600 µl. Control incubation was included for each compound tested where 0.1 M phosphate buffer pH 7.4 was added instead of NADPH (minus NADPH). One control compound was included with each species. All incubations were performed singularly for each test compound. Each compound was incubated for 30 minutes and samples (90 µl) of incubate were taken at 0, 5, 10, 20 and 30 minutes. The control (minus NADPH) was sampled at 0 and 30 minutes only. The reactions were stopped by the addition of sample to 200 µl of acetonitrile:methanol (3∶1) containing an internal standard. The terminated samples were centrifuged at 3700 rpm for 15 minutes at 4°C to precipitate the protein. Quantitative analysis: following protein precipitation, the samples were analyzed using specific LC-MS/MS conditions. Data analysis: from a plot of ln peak area ratio (compound peak area/internal standard peak area) against time, the gradient of the line was determined. Subsequently, half-life and intrinsic clearance were calculated using the equations below:
(§2) Elimination rate constant (k) = (-gradient) Half life [drawing 1]
(§3) Intrinsic Clearance (CLint) (ml/min/g protein) = [drawing 2] where V = Incubation volume ml/g microsomal protein.

[7] = type: in vitro ADME, human; conditions: for Cli human: human microsomes
Description: as §1, §2, §3

[8] = system: M. tuberculosis; assay: Killing kinetics assay; type: cell-based, Mycobacterium tuberculosis; conditions: for reduction of cfu counts after one week of treatment: 20x MIC; for in vitro killing behaviour: kill rate over 7 days
[9] = system: M. bovis BCG; type: cell-based, Mycobacterium bovis BCG
[10] = in words
[11] = physchem
[12] = in vivo; set-up: species or system mice
Description: Figure 5 Whole blood pharmacokinetic profile and main parameters of compounds 3 and 4. Compounds were given orally at 50 mg/Kg suspension in 1% aqueous methylcellulose. Main pharmacokinetic parameters were established after non-compartimental analysis. AUC: Area Under the Curve; Cmax: Maximum concentration observed in whole blood; %F: percentage bioavailability. TEXT PRINTED IN THE PICTURE: 3: Tmax (h): 3.0 ± 2.8 (Dose (mg/kg): 50); Cmax (μg/ml): 1.8 ± 0.5 (Dose (mg/kg): 50); AUC0-24h (μg*h/ml): 26.2 ± 9.4 (Dose (mg/kg): 50); DNAUC0-24h (μg*h/ml per mg/kg): 0.6 ± 0.2 (Dose (mg/kg): 50); %F: 96.1 ± 32.2 (Dose (mg/kg): 50) | 4: Tmax (h): 0.7 ± 0.1 (Dose (mg/kg): 50); Cmax (μg/ml): 1.3 ± 0.2 (Dose (mg/kg): 50); AUC0-24h (μg*h/ml): 8.7 ± 0.6 (Dose (mg/kg): 50); DNAUC0-24h (μg*h/ml per mg/kg): 0.20 ± 0.01 (Dose (mg/kg): 50); %F: 54.6 ± 5.4 (Dose (mg/kg): 50)
Experimental compounds were administered by oral gavage at 50 mg/kg single dose at a volume of 20 ml/kg to n = 5 mice. All mice received treatment in the fed state. Peripheral total blood was the compartment chosen for the establishment of compound concentrations: 25 μl of blood was taken from the lateral tail vein for each mouse at 15, 30 and 45 minutes, 1, 2, 4, 8 and 24 hours. LC-MS was used as the analytical method of choice for the establishment of compound concentration in blood with a sensitivity of LLQ = 1–5 ng/ml in 25 µl blood. The non-compartmental data analysis (NCA) was performed with WinNonlin Phoenix 6.3 (Pharsight, Certara L.P) and supplementary analysis was performed with GraphPad Prism 5 (GraphPad Software, Inc).

[13] = system: M. tuberculosis H37Rv; assay: In vivo efficacy in acute TB murine model; set-up: species or system Mycobacterium tuberculosis
[14] = Sensitive phenotype, 60 strains
[15] = monoR H (Isoniazid), 20 strains
[16] = monoR Rf (Rifampicin), 3 strains
[17] = monoR Sm (Streptomycin), 11 strains
[18] = Mycobacterium tuberculosis, H37RV

| SMILES | MIC ([1]; Mycobacterium tuberculosis) [µM] | Range of MIC's [2] | MIC90 [2] [µM] | Range of MIC's [2, 14] [µM] | Range of MIC's [2, 15] [µM] | Range of MIC's [2, 16] [µM] | Range of MIC's [2, 17] [µM] | MIC80 [3, 18] [µM] | IC50 [4] [µM] | HepG2 Tox50 [5] | Cli mouse ([6]; mouse microsomes) [mL/min/g] | Cli human [7] [mL/min/g] | reduction of cfu counts after one week of treatment [8] [log cfu] | in vitro killing behaviour [8] | effect on TMM in [14C]-labelled cultures [9] | effect on other classes of lipids, in particular phospholipids [9] | solubility [11] [µM] | further results |
| --- | --- | --- | --- | --- | --- | --- | --- | --- | --- | --- | --- | --- | --- | --- | --- | --- | --- | --- |
| CCc1ccc([C@H]2C[C@@H](C(F)(F)F)n3ncc(C(=O)NCc4ccc(OC)cc4)c3N2)cc1 [Compound 1, (5R,7S)-5-(4-ethylphenyl)-N-(4-methoxybenzyl)-7-(trifluoromethyl)-4,5,6,7-tetrahydropyrazolo[1,5-a]pyrimidine-3-carboxamide] | 0.3 (≈ 0.138 µg/mL) | 0.16 to 2.5 µM and 0.3 to 5 µM | 0.6 (≈ 0.275 µg/mL) | 0.16 to 0.6 | 0.16 to 0.6 | 0.16 to 0.3 | 0.16 to 0.6 | 0.16 (≈ 0.0734 µg/mL) | ≥ 32 | >25 ^* µM | 0.69 | 0.29 | > 3 | bactericidal | accumulation of TMM | unaffected | 5 (≈ 2.29 µg/mL) | signs of cytotoxicity at the maximum concentration tested ([5]; maximum concentration where compound was in solution): did not show initial signs of cytotoxicity; solubility in different media [10]: very low solubility |
| c1cc2c(s1)CCOC21CCN(Cc2ccc3c(c2)OCCO3)CC1 [Compound 2] | 0.3 (≈ 0.107 µg/mL) | 0.3 to 1.25 µM | 0.6 (≈ 0.214 µg/mL) | 0.3 to 1.25 | 0.3 to 10 | 0.6 to 10 | 0.3 to 10 | 0.63 (≈ 0.225 µg/mL) | ≥ 16 | 36 µM | >30 | 25 | > 3 | bactericidal | accumulation of TMM | unaffected | 266 (≈ 95.1 µg/mL) | intrinsic clearance values in mice microsomes ([6]; in words): poor; intrinsic clearance values in human microsomes ([7]; in words): poor |
| CCc1ccc([C@H]2C[C@@H](C(F)(F)F)n3ncc(C(=O)NCc4ccc5c(c4)OCO5)c3N2)cc1 [Compound 3] | < 0.5 |  |  |  |  |  |  |  |  | > 25 µM | 0.8 |  |  |  |  |  |  | MIC [1]: 0.16 µM (≈ 0.0756 µg/mL); MIC80 [3]: 0.31 µM (≈ 0.146 µg/mL); DNAUC0-24h ([12]; mice, oral 50 mg/kg, whole blood): 0.6 ± 0.2 μg*h/ml per mg/kg; AUC(0-t) ([12]; mouse, in vivo, po, 50 mg/kg, mice, oral 50 mg/kg, whole blood, read-out: AUC0-24h): 26200 ± 9400 ng·h/mL; AUC(0-t) ([12]; mouse, in vivo, po, 50 mg/kg, po 50 mg/kg (Figure 4), read-out: AUC 24h): 26500 ng·h/mL; AUC ([12]; mouse, in vivo, po, 50 mg/kg, minimum requirement fulfilled, read-out: AUC after oral administration 50 mg/kg): > 1000 ng·h/mL; bioavailability ([12]; mouse, in vivo, mice, oral 50 mg/kg, whole blood, read-out: %F): 96.1 ± 32.2%; Cmax ([12]; mouse, in vivo, mice, oral 50 mg/kg, whole blood, read-out: Cmax): 1800 ± 500 ng/mL; Tmax ([12]; mouse, in vivo, mice, oral 50 mg/kg, whole blood, read-out: Tmax): 3 ± 2.8 h; reduction in lung bacterial load ([13]; 100 mg/kg orally once a day, day 1 to day 8, B6 mice): 1.5 log units; reduction in lung bacterial load ([13]; 300 mg/kg orally once a day, day 1 to day 8, B6 mice): 2.2 log units |
| Cl.FC(F)(F)Oc1ccc(Oc2ccc(CN3CCC4(CC3)OCCc3sccc34)cc2)cc1 [Compound 4] |  |  |  |  |  |  |  |  |  | 36 µM |  |  |  |  |  |  |  | Cli mouse ([6]; mouse, pH 7.4): 1.2 mL/min/g; AUC ([12]; mouse, in vivo, po, 50 mg/kg): > 1000 ng·h/mL; Cmax ([12]; mouse, in vivo, po, 50 mg/kg): 1300 ± 200 ng/mL; DNAUC0-24h ([12]; mouse, in vivo, po, 50 mg/kg): 0.20 ± 0.01 μg*h/ml per mg/kg; Tmax ([12]; mouse, in vivo, po, 50 mg/kg): 0.7 ± 0.1 h; bioavailability ([12]; mouse, in vivo, po, 50 mg/kg): 54.6 ± 5.4%; AUC(0-t) ([12]; mouse, in vivo, po, 50 mg/kg, AUC0-24h): 8700 ± 600 ng·h/mL; AUC(0-t) ([12]; mouse, in vivo, po, 50 mg/kg, AUC 24h): 8700 ng·h/mL; reduction in lung bacterial load ([13]; in vivo): 2.3 log units and 2.7 log units |
